Source: ChEMBL document CHEMBL5715949, “Discovery of a selective irreversible BMX inhibitor for prostate cancer” (ACS Chem Biol, 2013)
Calls of active or inactive are those of the source. The calls are words filed in the database; no cut-off is given here.

What was measured:
[1] = target: Ribosomal protein S6 kinase alpha-3 (Homo sapiens) (UniProt P51812); test: Inhibition of N-terminal kinase domain RSK2 (unknown origin) assessed as remaining activity at 1 uM by Kinome scan method relative to control
[2] = target: Mitogen-activated protein kinase kinase kinase 20 (Homo sapiens) (UniProt Q9NYL2); test: Inhibition of ZAK (unknown origin) assessed as remaining activity at 1 uM by Kinome scan method relative to control
[3] = target: Ephrin type-B receptor 3 (Homo sapiens) (UniProt P54753); test: Inhibition of EPHB3 (unknown origin) assessed as remaining activity at 1 uM by Kinome scan method relative to control
[4] = target: Mitogen-activated protein kinase kinase kinase 15 (Homo sapiens) (UniProt Q6ZN16); test: Inhibition of MAP3K15 (unknown origin) assessed as remaining activity at 1 uM by Kinome scan method relative to control
[5] = target: Myosin-IIIb (Homo sapiens) (UniProt Q8WXR4); test: Inhibition of MYO3B (unknown origin) assessed as remaining activity at 1 uM by Kinome scan method relative to control
[6] = Inhibition of PI3K/AKT/mTOR signalling pathway in human RV-1 cells assessed as decrease in FOXO3A phosphorylation at S253 residue at 2.5 uM incubated for 4 hrs by immunoblot analysis; type: cell-based
[7] = Inhibition of PI3K/AKT/mTOR signalling pathway in human RV-1 cells assessed as decrease in 4EBP phosphorylation at T37/46 residue at 2.5 uM incubated for 5 days by immunoblot analysis; type: cell-based; details: time 5.0 day
[8] = Inhibition of PI3K/AKT/mTOR signalling pathway in human RV-1 cells assessed as decrease in 4EBP phosphorylation at T37/46 residue at 2.5 uM incubated for 5 days in presence of MK2206 by immunoblot analysis; type: cell-based; details: time 5.0 day
[9] = target: Serine/threonine-protein kinase PAK 5 (Homo sapiens) (UniProt Q9P286); test: Inhibition of PAK7 (unknown origin) assessed as remaining activity at 1 uM by Kinome scan method relative to control
Serine/threonine-protein kinase PAK 5 (Homo sapiens), sequence (Q9P286 whole entry, looked up, canonical isoform): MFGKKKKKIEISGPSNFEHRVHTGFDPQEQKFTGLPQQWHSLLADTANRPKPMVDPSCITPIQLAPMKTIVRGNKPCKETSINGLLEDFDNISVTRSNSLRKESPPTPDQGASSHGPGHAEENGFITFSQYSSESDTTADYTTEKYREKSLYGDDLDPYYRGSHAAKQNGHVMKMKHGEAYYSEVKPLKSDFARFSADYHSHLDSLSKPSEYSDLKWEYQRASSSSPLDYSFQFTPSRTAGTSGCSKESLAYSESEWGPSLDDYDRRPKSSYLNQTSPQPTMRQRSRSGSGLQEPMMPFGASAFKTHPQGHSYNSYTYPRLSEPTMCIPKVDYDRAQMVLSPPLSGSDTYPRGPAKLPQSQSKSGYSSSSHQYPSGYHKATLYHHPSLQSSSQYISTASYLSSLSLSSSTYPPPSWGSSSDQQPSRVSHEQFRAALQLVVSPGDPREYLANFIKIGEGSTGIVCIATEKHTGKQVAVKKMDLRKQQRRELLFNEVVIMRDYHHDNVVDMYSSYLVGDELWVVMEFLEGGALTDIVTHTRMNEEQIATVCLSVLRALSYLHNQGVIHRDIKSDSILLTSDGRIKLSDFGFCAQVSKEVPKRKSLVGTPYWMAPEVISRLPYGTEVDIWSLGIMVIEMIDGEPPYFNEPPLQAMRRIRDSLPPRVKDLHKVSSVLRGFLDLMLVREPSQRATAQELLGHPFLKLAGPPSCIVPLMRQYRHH

[10] = test system: Phosphatidylinositol 4,5-bisphosphate 3-kinase catalytic subunit alpha isoform (Homo sapiens), P42336 [H1047Y]; test: Inhibition of PIK3CA H1047Y mutant (unknown origin) assessed as remaining activity at 1 uM by Kinome scan method relative to control
[11] = target: Dual specificity protein kinase CLK4 (Homo sapiens) (UniProt Q9HAZ1); test: Inhibition of CLK4 (unknown origin) assessed as remaining activity at 1 uM by Kinome scan method relative to control
[12] = test system: RV-1; test: Antiproliferative activity against human RV-1 cells assessed as reduction in cell viability at 500 to 2500 nM incubated for 5 days in presence of gefitinib by CellTiter-Glo assay; type: functional, cell-based; details: dose 500-2500 nM, time 5.0 day
[13] = target: Rho-associated protein kinase 1 (Homo sapiens) (UniProt Q13464); test: Inhibition of ROCK1 (unknown origin) assessed as remaining activity at 1 uM by Kinome scan method relative to control
Rho-associated protein kinase 1 (Homo sapiens), sequence (Q13464 2-1354 limits assumed): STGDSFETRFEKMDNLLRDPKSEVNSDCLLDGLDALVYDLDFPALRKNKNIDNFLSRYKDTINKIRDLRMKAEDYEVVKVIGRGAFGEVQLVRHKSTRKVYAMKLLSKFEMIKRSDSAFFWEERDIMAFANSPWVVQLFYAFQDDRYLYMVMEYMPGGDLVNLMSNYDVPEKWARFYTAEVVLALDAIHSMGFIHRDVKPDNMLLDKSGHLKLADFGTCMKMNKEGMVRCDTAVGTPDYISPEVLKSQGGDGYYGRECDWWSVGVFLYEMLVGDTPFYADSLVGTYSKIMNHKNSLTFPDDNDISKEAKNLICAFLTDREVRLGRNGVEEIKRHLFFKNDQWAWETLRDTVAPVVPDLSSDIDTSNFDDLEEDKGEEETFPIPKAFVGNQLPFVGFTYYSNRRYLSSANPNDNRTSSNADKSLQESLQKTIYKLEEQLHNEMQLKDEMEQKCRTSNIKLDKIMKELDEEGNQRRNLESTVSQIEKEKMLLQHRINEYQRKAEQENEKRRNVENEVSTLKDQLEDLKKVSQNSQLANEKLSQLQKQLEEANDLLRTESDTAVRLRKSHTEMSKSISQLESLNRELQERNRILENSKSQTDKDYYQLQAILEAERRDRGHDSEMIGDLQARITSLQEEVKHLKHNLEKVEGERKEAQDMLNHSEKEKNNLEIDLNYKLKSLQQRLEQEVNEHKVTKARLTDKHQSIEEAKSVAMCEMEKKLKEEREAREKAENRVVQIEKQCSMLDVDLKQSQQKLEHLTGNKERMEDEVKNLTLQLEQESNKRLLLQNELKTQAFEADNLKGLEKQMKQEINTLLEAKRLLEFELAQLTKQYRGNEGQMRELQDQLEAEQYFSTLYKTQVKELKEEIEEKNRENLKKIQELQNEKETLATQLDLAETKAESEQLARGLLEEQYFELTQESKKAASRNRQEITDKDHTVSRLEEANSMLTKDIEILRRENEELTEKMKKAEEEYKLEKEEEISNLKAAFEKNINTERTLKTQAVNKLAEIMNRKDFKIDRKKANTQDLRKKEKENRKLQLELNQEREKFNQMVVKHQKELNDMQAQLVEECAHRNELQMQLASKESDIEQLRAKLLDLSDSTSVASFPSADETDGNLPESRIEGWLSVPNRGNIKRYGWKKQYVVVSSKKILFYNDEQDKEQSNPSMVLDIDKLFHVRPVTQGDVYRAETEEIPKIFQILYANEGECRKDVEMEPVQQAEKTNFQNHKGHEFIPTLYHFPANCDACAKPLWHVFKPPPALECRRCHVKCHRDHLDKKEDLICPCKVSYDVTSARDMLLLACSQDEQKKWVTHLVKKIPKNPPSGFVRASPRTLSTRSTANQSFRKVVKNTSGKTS

[14] = target: Serine/threonine-protein kinase 3 (Homo sapiens) (UniProt Q13188); test: Inhibition of MST2 (unknown origin) assessed as remaining activity at 1 uM by Kinome scan method relative to control
[15] = target: Phosphorylase b kinase gamma catalytic chain, skeletal muscle/heart isoform (Homo sapiens) (UniProt Q16816); test: Inhibition of PHKG1 (unknown origin) assessed as remaining activity at 1 uM by Kinome scan method relative to control
Phosphorylase b kinase gamma catalytic chain, skeletal muscle/heart isoform (Homo sapiens), sequence (Q16816 whole entry, looked up, canonical isoform): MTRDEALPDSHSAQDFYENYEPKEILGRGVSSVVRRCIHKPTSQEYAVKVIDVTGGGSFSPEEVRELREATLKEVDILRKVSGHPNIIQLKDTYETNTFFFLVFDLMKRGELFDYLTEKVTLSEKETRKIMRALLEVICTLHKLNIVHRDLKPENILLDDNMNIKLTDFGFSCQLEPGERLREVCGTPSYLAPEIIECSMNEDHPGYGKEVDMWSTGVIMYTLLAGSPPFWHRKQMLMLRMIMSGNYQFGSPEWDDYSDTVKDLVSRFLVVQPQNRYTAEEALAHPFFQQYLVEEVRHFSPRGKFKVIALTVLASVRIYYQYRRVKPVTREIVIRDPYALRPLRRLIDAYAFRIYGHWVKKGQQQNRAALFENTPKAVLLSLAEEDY

[16] = target: Myosin light chain kinase 2, skeletal/cardiac muscle (Homo sapiens) (UniProt Q9H1R3); test: Inhibition of MYLK2 (unknown origin) assessed as remaining activity at 1 uM by Kinome scan method relative to control
[17] = target: Serine/threonine-protein kinase RIO3 (Homo sapiens) (UniProt O14730); test: Inhibition of RIOK3 (unknown origin) assessed as remaining activity at 1 uM by Kinome scan method relative to control
Serine/threonine-protein kinase RIO3 (Homo sapiens), sequence (O14730 whole entry): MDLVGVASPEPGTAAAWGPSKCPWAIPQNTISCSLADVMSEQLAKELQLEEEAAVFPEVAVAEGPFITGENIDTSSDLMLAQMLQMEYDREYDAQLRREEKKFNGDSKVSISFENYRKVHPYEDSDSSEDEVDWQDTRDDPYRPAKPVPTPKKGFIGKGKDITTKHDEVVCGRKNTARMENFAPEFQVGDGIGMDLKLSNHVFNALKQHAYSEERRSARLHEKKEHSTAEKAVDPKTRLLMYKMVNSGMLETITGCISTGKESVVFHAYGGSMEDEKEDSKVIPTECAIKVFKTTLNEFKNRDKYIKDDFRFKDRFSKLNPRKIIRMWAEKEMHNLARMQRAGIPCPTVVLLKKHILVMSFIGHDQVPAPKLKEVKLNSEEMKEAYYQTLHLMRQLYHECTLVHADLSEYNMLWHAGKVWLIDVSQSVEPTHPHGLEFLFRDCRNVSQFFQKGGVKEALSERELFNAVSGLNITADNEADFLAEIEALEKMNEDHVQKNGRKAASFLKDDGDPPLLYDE

[18] = Inhibition of PI3K/AKT/mTOR signalling pathway in human RV-1 cells assessed as decrease in GSKalpha/beta phosphorylation at 2.5 uM incubated for 4 hrs by immunoblot analysis; type: cell-based
[19] = target: Serine/threonine-protein kinase BRSK2 (Homo sapiens) (UniProt Q8IWQ3); test: Inhibition of BRSK2 (unknown origin) assessed as remaining activity at 1 uM by Kinome scan method relative to control
[20] = target: Serine/threonine-protein kinase Nek3 (Homo sapiens) (UniProt P51956); test: Inhibition of NEK3 (unknown origin) assessed as remaining activity at 1 uM by Kinome scan method relative to control
[21] = test system: RV-1; test: Antiproliferative activity against human RV-1 cells assessed as reduction in cell viability at 500 to 2500 nM incubated for 5 days in presence of GDC0941 by CellTiter-Glo assay; type: functional, cell-based; details: dose 500-2500 nM, time 5.0 day
[22] = target: Ephrin type-A receptor 6 (Homo sapiens) (UniProt Q9UF33); test: Inhibition of EPHA6 (unknown origin) assessed as remaining activity at 1 uM by Kinome scan method relative to control
Ephrin type-A receptor 6 (Homo sapiens), sequence (Q9UF33 whole entry, the tested form may be a part): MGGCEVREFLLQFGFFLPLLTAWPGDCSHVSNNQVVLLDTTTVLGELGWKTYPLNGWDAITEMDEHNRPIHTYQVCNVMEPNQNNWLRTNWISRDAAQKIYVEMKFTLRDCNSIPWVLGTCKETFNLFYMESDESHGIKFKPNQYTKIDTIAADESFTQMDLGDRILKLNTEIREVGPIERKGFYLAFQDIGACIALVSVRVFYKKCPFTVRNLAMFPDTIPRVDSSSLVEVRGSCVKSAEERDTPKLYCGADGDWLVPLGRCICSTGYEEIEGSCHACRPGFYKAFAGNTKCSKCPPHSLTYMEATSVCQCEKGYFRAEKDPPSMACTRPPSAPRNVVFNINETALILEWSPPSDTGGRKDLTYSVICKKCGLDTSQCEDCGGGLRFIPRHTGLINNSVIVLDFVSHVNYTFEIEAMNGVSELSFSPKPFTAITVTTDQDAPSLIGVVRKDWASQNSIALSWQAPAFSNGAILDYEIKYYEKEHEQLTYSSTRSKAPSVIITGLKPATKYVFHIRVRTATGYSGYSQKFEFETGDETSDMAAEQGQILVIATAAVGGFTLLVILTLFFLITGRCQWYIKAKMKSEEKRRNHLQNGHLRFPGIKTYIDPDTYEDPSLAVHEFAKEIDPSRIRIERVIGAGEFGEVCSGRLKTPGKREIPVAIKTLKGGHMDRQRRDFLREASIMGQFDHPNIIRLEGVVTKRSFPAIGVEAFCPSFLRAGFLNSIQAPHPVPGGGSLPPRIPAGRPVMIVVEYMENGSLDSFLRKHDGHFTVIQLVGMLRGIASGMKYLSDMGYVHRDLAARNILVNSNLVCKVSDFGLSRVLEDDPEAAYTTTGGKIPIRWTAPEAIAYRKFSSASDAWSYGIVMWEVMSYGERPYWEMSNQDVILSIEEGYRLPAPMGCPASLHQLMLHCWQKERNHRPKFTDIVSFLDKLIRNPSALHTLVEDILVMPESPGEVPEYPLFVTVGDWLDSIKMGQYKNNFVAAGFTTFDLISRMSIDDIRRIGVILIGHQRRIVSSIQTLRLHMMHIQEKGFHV

[23] = test system: BaF3; test: Antiproliferative activity against mouse BaF3 cells expressing TEL-fused JAK2 assessed growth inhibition incubated for 2 to 5 days by CellTiter-Glo assay; type: functional; details: time 2-5 day
[24] = target: Tyrosine-protein kinase Mer (Homo sapiens) (UniProt Q12866); test: Inhibition of MERTK (unknown origin) assessed as remaining activity at 1 uM by Kinome scan method relative to control
[25] = Down regulation of BMX protein expression in human RV-1 cells expressing wild type BMX assessed protein expression level at 2.5 uM pre incubated for 4 hrs followed by compound wash out and additon of CHX and measured after 16 hrs by immunoblot analysis (reference value: 0.98 to 1.01); type: functional
[26] = Cytotoxicity against mouse BaF3 cells assessed growth inhibition incubated for 2 to 5 days by CellTiter-Glo assay; type: toxicity, cell-based; details: time 2-5 day
[27] = target: Dual specificity mitogen-activated protein kinase kinase 7 (Homo sapiens) (UniProt O14733); test: Inhibition of MKK7 (unknown origin) assessed as remaining activity at 1 uM by Kinome scan method relative to control
Dual specificity mitogen-activated protein kinase kinase 7 (Homo sapiens), sequence (O14733 whole entry): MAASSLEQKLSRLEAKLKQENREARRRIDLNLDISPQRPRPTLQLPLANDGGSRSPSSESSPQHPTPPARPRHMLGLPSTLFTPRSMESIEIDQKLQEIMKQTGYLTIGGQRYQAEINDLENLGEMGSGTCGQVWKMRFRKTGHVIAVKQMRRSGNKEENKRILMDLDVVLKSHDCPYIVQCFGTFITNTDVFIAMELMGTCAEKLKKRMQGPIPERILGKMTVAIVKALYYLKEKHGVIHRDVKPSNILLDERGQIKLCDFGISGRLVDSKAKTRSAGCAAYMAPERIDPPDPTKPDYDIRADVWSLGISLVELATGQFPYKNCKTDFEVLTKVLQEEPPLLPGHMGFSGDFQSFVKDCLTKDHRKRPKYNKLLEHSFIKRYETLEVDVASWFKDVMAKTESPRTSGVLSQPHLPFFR

[28] = Induction of cell cycle arrest in human RV-1 cells assessed as accumulation of cells at S phase at 2.5 uM incubated for 5 days in presence of MK2206 by propidium iodide staining based flow cytometric analysis (reference value: 28.9 %); type: functional; details: time 5 day
[29] = target: Serine/threonine-protein kinase ULK1 (Homo sapiens) (UniProt O75385); test: Inhibition of ULK1 (unknown origin) assessed as remaining activity at 1 uM by Kinome scan method relative to control
[30] = target: Tyrosine-protein kinase HCK (Homo sapiens) (UniProt P08631); test: Inhibition of HCK (unknown origin) assessed as remaining activity at 1 uM by Kinome scan method relative to control
Tyrosine-protein kinase HCK (Homo sapiens), sequence (P08631 2-526 limits assumed): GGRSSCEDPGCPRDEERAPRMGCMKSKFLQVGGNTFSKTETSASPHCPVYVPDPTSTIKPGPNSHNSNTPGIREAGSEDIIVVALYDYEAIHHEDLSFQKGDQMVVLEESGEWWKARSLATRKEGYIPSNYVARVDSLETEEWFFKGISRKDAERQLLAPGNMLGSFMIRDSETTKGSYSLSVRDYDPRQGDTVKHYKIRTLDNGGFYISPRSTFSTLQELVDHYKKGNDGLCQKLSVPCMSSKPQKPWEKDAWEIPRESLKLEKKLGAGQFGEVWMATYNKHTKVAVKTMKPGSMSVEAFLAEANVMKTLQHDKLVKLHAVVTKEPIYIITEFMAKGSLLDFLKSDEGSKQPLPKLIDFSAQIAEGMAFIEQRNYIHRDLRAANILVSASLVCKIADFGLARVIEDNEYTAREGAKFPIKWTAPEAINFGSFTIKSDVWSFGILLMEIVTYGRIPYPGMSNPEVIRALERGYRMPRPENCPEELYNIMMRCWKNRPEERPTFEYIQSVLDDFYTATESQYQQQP

[31] = target: Ribosomal protein S6 kinase alpha-1 (Homo sapiens) (UniProt Q15418); test: Inhibition of C-terminal kinase domain RSK1 (unknown origin) assessed as remaining activity at 1 uM by Kinome scan method relative to control
[32] = target: Cyclin-dependent kinase-like 2 (Homo sapiens) (UniProt Q92772); test: Inhibition of CDKL2 (unknown origin) assessed as remaining activity at 1 uM by Kinome scan method relative to control

Work on `C=CC(=O)Nc1cc(-n2c(=O)ccc3cnc4ccc(-c5ccc(NS(C)(=O)=O)cc5)cc4c32)ccc1C` yielded an Activity [1] of 81%, an Activity [2] of 64% and an Activity [3] of 83%. For the same molecule, the Activity [4] was 70%, the Activity [5] was 92% and the inhibition [6] was “inactive”. For the same molecule, the inhibition [7] was “Active”, the inhibition [8] was “Active” and the Activity [9] was 98%. For the same molecule, the Activity [10] was 88%, the Activity [11] was 99% and the Activity [12] was “Active”. The Activity [13] was 56%, the Activity [14] was 62% and the Activity [15] was 86%. For the same molecule, the Activity [16] was 93%, the Activity [17] was 55% and the inhibition [18] was “inactive”. For the same molecule, the Activity [19] was 84%, the Activity [20] was 98% and the Activity [21] was “Active”. The Activity [22] was 96%, the GI50 [23] was 5.83 µM and the Activity [24] was 72%. For the same molecule, the Activity [25] was 0.28, the GI50 [26] was > 10 µM and the Activity [27] was 49%. It also gave an Activity [28] of 24.3%, an Activity [29] of 84% and an Activity [30] of 97%. The Activity [31] was 91% and the Activity [32] was 93%.
